Experimental data: patent publication US20080234188A1, “Antimicrobial Peptides” (The Hospital for Sick Children, priority 2001, published 2008)
≈ marks a conversion by molar mass, not a printed value. Like-named read-outs stand apart in the source and are kept apart here. Where a SMILES comes first, the peptide text is derived from it. Where no end group is shown, it is not given here.

What was measured:
[1] = Hydrophobicity (hydropathy) from reverse-phase HPLC retention scale; type: physicochemical; set-up: key to Average Hydrophobicity of Core Sequence / Mean Core segment Hydrophobicity: arithmetic average of Table 1 hydropathy values of constituent residues; key to Hydropathy: hydropathy scale from HPLC retention times of model peptides (Table 1); conditions: for Mean residue hydropathy of X-residue peptide / Hydropathy: Table 1; for Hydropathy: of the X-residue, from HPLC retention of KKAAAXAAAAAXAAWAAXAAAKKKK-amide peptides; for Mean Core segment Hydrophobicity: Table 3
Source text: The “hydrophobicity value” of an amino acid residue means the hydrophobicity value of that residue as shown in Table 1 or as calculated by the method described herein.
The “hydrophobicity value” of an amino acid sequence or peptide means the arithmetic average of the individual hydrophobicity values of the constituent amino acid residues of the sequence.
Various hydrophobicity scales for proteins and amino acids have been described in the literature but the inventors have established the hydrophobicity scale of Table 1 based on the retention times on HPLC of a series of hydrophobic model peptides, as described in Liu and Deber (1998), Biopolymers (Peptide Science), v. 47, pp. 41-62).
The hydrophobicity value shown for each amino acid in Table 1 as “hydropathy” may be used as the hydrophobicity value for that amino acid in any peptide whose hydrophobicity value has to be calculated. The “average hydrophobicity” of a peptide containing amino acids shown in Table 1 is calculated by determining the arithmetic average of the Table 1 “hydropathy” values for the constituent amino acids of the sequence.
Peptides in accordance with the invention may also include other amino acids. For an amino acid not included in Table 1, the hydrophobicity value may be determined by the same method as described herein for obtaining the values of Table 1. For example, a peptide such as KKAAAXAAAAAXAAXAAXAAAKKKK-amide (Sequence ID No: 1) may be synthesized, where X is the amino acid whose hydrophobicity value is to be determined, and the retention time of the peptide on HPLC is determined, as described in the Examples. Similar peptides where X is Lys or Phe are also prepared and their HPLC retention times determined. The retention time, Rx, is converted to the hydropathy value H for the selected amino acid using the equation
H=(10×ΔtRx-Lys/ΔtRPhe-Lys)−5.00
where ΔtRx-Lys=retention time difference in minutes between Rx and the retention time of the most hydrophilic peptide tested (X=Lys) and where ΔtRPhe-Lys=retention time difference in minutes between the most hydrophobic peptide tested (X=Phe) and the most hydrophilic (X=Lys).
The retention time of each peptide was determined on a C4 reversed-phase column (4.6×250 mm, 300 A pore size, 10 μ particle size). Equal amounts of each peptide were injected into the column and eluted at a flow rate of 1 mL/min, utilizing a linear AB gradient (2% B/min), where buffer A was 0.1% TFA/ddH2O, and buffer B was 0.1% TFA/acetonitrile. The retention time of each peptide reported here was the average of triplicate measurements.

[2] = test system: Corynebacterium xerosis (C875); type: cell-based
Source text: (§1) The bacterial strains used were E. coli C498, E. coli C500, Escherichia coli UB1005 and its antibiotic supersusceptible derivative DC2 (22); a clinical isolate of Staphylococcus epidermidis (C621); coryneform bacterial strain Corynebacterium xerosis (C875); and E. coli ATCC 25922, Staphylococcus aureus ATCC 25923, Enterococcus faecalis ATCC 29212, Bacillus subtilis ATCC 6633 and Pseudomonas aeruginosa ATCC 27853, all from American Type Culture Collection.
(§2) Peptide antibacterial activity was assessed by the method of R. Hancock et al. (Wu & Hancock (1999), J. Biol. Chem., v. 274, pp. 29-35). Test strains of bacteria from Mueller Hinton agar (MHA) plates were inoculated into 5 ml Mueller Hinton Broth (MHB) in tubes and grown overnight at 37° C. on a shaker (180 rpm). Serial dilutions of test peptides (at 10 times the required test concentrations) were made in 0.01% acetic acid, 0.2% BSA, in polypropylene or coated glass tubes as follows: the test peptide was (a) dissolved in distilled water at 20 times the required maximum concentration (enough final volume for all tests to be performed on a given day); (b) diluted into an equal volume of 0.02% acetic acid, 0.4% BSA to give 10 times the required maximum concentration; (c) serial doubling dilutions were performed in 0.01% acetic acid, 0.2% BSA to provide serial dilutions of peptides at 10 times the required test concentrations, e.g., 640, 320, 160, . . . 2.5 μg/ml. (No deleterious effects of long-term storage of peptides in these media have been detected). Overnight bacterial cultures were diluted in MHB to give 2−7×10^5 colony forming units/ml. Bacterial suspension (100 μl) was dispensed in each well; controls without bacteria were maintained in parallel. To each well was added 11 μl of 10× test peptide and plates were incubated at 37° C. for 18-24 hours, and checked again at 40-48 hours. Plates were read visually and at 600 nm in a microplate reader (Molecular Devices).
(§3) were synthesized. The antibacterial activity of these peptides was determined against both Gram-positive bacteria ([…], Corynebacterium xerosis) and Gram-negative bacteria (various strains of E. coli). The results are shown in Table 2, along with the average hydrophobicity of each peptide, calculated as described herein.
(§4) A further number of the peptides of the invention were tested for antimicrobial activity against a range of Gram-positive and Gram-negative bacteria by the assay described immediately before Example 1.

[3] = test system: Staphylococcus epidermidis (C621); type: cell-based
Source text: as §1, §2, §3, §4

E. coli DC2 = assay: Assay of antibacterial activity (MIC), E. coli DC2; type: cell-based, Escherichia coli; conditions: Table 3; Gram-negative
Source text: as §1, §2, §4

E. coli UB1005 = type: cell-based, Escherichia coli
Source text: as §1, §2, §4

Compound	Mean residue hydropathy of X-residue peptide [1]	Hydropathy [1]	MIC C. xerosis C875 [2]	MIC S. epidermidis C621 ([3]; C621)	MIC E. coli DC2 (E. coli DC2)	MIC E. coli UB1005 (E. coli UB1005; UB1005)	Mean Core segment Hydrophobicity [1]	Antimicrobial activity, spectrum (in words) ([2]; Example 5, active on C. xerosis, not on the other bacteria tested)	MIC C. xerosis C875 ([2]; Table 3, Gram-positive)	MIC S. epidermidis C621 ([3]; Table 3, Gram-positive)	MIC E. coli UB1005 (E. coli UB1005; Table 3, Gram-negative)
N=C(N)NCCC[C@H](N)C(=O)O [Arg]	−0.05	−2.77	–	–	–	–	–	–	–	–	–
C[C@H](NC(=O)CNC(=O)[C@H](C)NC(=O)[C@H](C)NC(=O)[C@H](C)NC(=O)[C@H](CCCCN)NC(=O)[C@@H](N)CCCCN)C(=O)N[C@@H](C)C(=O)N[C@@H](C)C(=O)N[C@@H](C)C(=O)N[C@@H](C)C(=O)NCC(=O)N[C@@H](C)C(=O)N[C@@H](C)C(=O)N[C@@H](Cc1c[nH]c2ccccc12)C(=O)N[C@@H](C)C(=O)N[C@@H](C)C(=O)NCC(=O)N[C@@H](C)C(=O)N[C@@H](C)C(=O)N[C@@H](C)C(=O)N[C@@H](CCCCN)C(=O)N[C@@H](CCCCN)C(=O)N[C@@H](CCCCN)C(=O)N[C@@H](CCCCN)C(N)=O [G] (H-KKAAAGAAAAAGAAWAAGAAAKKKK-NH2; N-terminus assumed)	−0.13	−3.31	>64 µM	>64 µM	>64 µM	>64 µM	−0.13	–	–	–	–
C[C@H](NC(=O)[C@H](C)NC(=O)[C@H](C)NC(=O)[C@H](CC(N)=O)NC(=O)[C@H](C)NC(=O)[C@H](C)NC(=O)[C@H](C)NC(=O)[C@H](CCCCN)NC(=O)[C@@H](N)CCCCN)C(=O)N[C@@H](C)C(=O)N[C@@H](C)C(=O)N[C@@H](CC(N)=O)C(=O)N[C@@H](C)C(=O)N[C@@H](C)C(=O)N[C@@H](Cc1c[nH]c2ccccc12)C(=O)N[C@@H](C)C(=O)N[C@@H](C)C(=O)N[C@@H](CC(N)=O)C(=O)N[C@@H](C)C(=O)N[C@@H](C)C(=O)N[C@@H](C)C(=O)N[C@@H](CCCCN)C(=O)N[C@@H](CCCCN)C(=O)N[C@@H](CCCCN)C(=O)N[C@@H](CCCCN)C(N)=O [N] (H-KKAAANAAAAANAAWAANAAAKKKK-NH2; N-terminus assumed)	−0.16	−3.79	>64 µM	>64 µM	>64 µM	>64 µM	−0.21	–	–	–	–
C[C@H](NC(=O)[C@H](C)NC(=O)[C@H](C)NC(=O)[C@@H](NC(=O)[C@H](C)NC(=O)[C@H](C)NC(=O)[C@H](C)NC(=O)[C@H](CCCCN)NC(=O)[C@@H](N)CCCCN)[C@@H](C)O)C(=O)N[C@@H](C)C(=O)N[C@@H](C)C(=O)N[C@H](C(=O)N[C@@H](C)C(=O)N[C@@H](C)C(=O)N[C@@H](Cc1c[nH]c2ccccc12)C(=O)N[C@@H](C)C(=O)N[C@@H](C)C(=O)N[C@H](C(=O)N[C@@H](C)C(=O)N[C@@H](C)C(=O)N[C@@H](C)C(=O)N[C@@H](CCCCN)C(=O)N[C@@H](CCCCN)C(=O)N[C@@H](CCCCN)C(=O)N[C@@H](CCCCN)C(N)=O)[C@@H](C)O)[C@@H](C)O [T] (H-KKAAATAAAAATAAWAATAAAKKKK-NH2; N-terminus assumed)	0.22	−1.08	>64 µM	>64 µM	>64 µM	>64 µM	0.22	–	–	–	–
CC(C)[C@H](NC(=O)[C@H](C)NC(=O)[C@H](C)NC(=O)[C@H](C)NC(=O)[C@H](CCCCN)NC(=O)[C@@H](N)CCCCN)C(=O)N[C@@H](C)C(=O)N[C@@H](C)C(=O)N[C@@H](C)C(=O)N[C@@H](C)C(=O)N[C@@H](C)C(=O)N[C@H](C(=O)N[C@@H](C)C(=O)N[C@@H](C)C(=O)N[C@@H](Cc1c[nH]c2ccccc12)C(=O)N[C@@H](C)C(=O)N[C@@H](C)C(=O)N[C@H](C(=O)N[C@@H](C)C(=O)N[C@@H](C)C(=O)N[C@@H](C)C(=O)N[C@@H](CCCCN)C(=O)N[C@@H](CCCCN)C(=O)N[C@@H](CCCCN)C(=O)N[C@@H](CCCCN)C(N)=O)C(C)C)C(C)C [V] (H-KKAAAVAAAAAVAAWAAVAAAKKKK-NH2; N-terminus assumed)	0.87	3.02	–	–	>32 µM	–	0.87	activity against gram-positive C. xerosis only	0.5 µM (≈ 1.17 µg/mL)	>32 µM	>32 µM
Asp: KKAAAXAAAAAXAAWAAXAAAKKKK-amide peptide with X-residue Asp (KKAAADAAAAADAAWAADAAAKKKK-NH2)	0.00	−2.49	–	–	–	–	–	–	–	–	–
Gln: KKAAAXAAAAAXAAWAAXAAAKKKK-amide peptide with X-residue Gln (KKAAAQAAAAAQAAWAAQAAAKKKK-NH2)	−0.04	−2.75	–	–	–	–	–	–	–	–	–
Glu: KKAAAXAAAAAXAAWAAXAAAKKKK-amide peptide with X-residue Glu (KKAAAEAAAAAEAAWAAEAAAKKKK-NH2)	0.16	−1.49	–	–	–	–	–	–	–	–	–
His: KKAAAXAAAAAXAAWAAXAAAKKKK-amide peptide with X-residue His (X = His; C-terminal amide)	−0.34	−4.63	–	–	–	–	–	–	–	–	–
K25: KKAAAXAAAAAXAAWAAXAAAKKKK-amide peptide with X = Lys, most hydrophilic peptide tested (KKAAAKAAAAAKAAWAAKAAAKKKK-NH2) [Peptide K25]	−0.40	−5.00	–	–	–	–	–	–	–	–	–
Pro: KKAAAXAAAAAXAAWAAXAAAKKKK-amide peptide with X-residue Pro (KKAAAPAAAAAPAAWAAPAAAKKKK-NH2)	−0.39	−4.92	–	–	–	–	–	–	–	–	–
